Values joined by “and” are separate entries in the source; they are usually repeats but may differ in a detail not shown here. Identical values can stand only once. Toxic doses and inconclusive results are not listed. The calls were made as follows: active = survival T/C of 150% or more; inactive = T/C below 125% in these data.
Test system: P388 leukemia ip, CD2F1 mice, survival T/C
Assay: NCI In Vivo Anticancer Drug Screen. Data for tumor model P388 Leukemia (intraperitoneal) in CD2F1 (CDF1) mice
Details: endpoint: median survival time, higher = longer survival
In short: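 Mice carrying the transplanted tumor received test compound or vehicle. Survival was recorded in each group, and the value is the treated-group measurement divided by that of the vehicle-treated control group.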

[1] = dose: 12.5 mg/kg/injection, schedule: Q01DX009 (ip), vehicle: saline with Tween-80
[2] = dose: 25.0 mg/kg/injection, schedule: Q01DX009 (ip), vehicle: saline with Tween-80
[3] = dose: 50.0 mg/kg/injection, schedule: Q01DX009 (ip), vehicle: saline with Tween-80
[4] = dose: 100.0 mg/kg/injection, schedule: Q01DX009 (ip), vehicle: saline with Tween-80
[5] = dose: 200.0 mg/kg/injection, schedule: Q01DX009 (ip), vehicle: saline with Tween-80
[6] = dose: 60.0 mg/kg/injection, schedule: Q01DX005 (ip), vehicle: saline with Tween-80
[7] = dose: 120.0 mg/kg/injection, schedule: Q01DX005 (ip), vehicle: saline with Tween-80
[8] = dose: 240.0 mg/kg/injection, schedule: Q01DX005 (ip), vehicle: saline with Tween-80

Measured: T/C

CCOC(=O)c1ccc(NCc2ccc(CNc3ccc(C(=O)OCC)cc3)cc2)cc1
inactive: dose: 6.25 mg/kg/injection, schedule: Q01DX009 (ip), vehicle: saline with Tween-80 105 % of control | [1] 103 % of control | [2] 94 % of control | [3] 89 % of control | [4] 89 % of control

O=C(O)c1c(-c2ccccc2)cnc2ccccc12
inactive: [3] 95 % of control | [4] 89 % of control | [5] 97 % of control

O=C(C[n+]1ccc2ccccc2c1)c1ccccc1
inactive: dose: 6.25 mg/kg/injection, schedule: Q01DX009 (ip), vehicle: saline 111 % of control | [1] 113 % of control | dose: 12.5 mg/kg/injection, schedule: Q01DX009 (ip), vehicle: saline 108 % of control | [2] 104 % of control | dose: 25.0 mg/kg/injection, schedule: Q01DX009 (ip), vehicle: saline 98 % of control | [3] 104 % of control | dose: 50.0 mg/kg/injection, schedule: Q01DX009 (ip), vehicle: saline 110 % of control

C/C(=N\N=C(N)N)c1ccc2c(c1)Cc1ccccc1-2
inactive: dose: 25.0 mg/kg/injection, schedule: Q04DX002 (ip), vehicle: saline with Tween-80 101 % of control | dose: 50.0 mg/kg/injection, schedule: Q04DX002 (ip), vehicle: saline with Tween-80 103 % of control

Cc1cc(NC(=S)SCc2ccc3c(c2)OCO3)ccc1Br
inactive: dose: 25.0 mg/kg/injection, schedule: Q01DX009 (ip), vehicle: Klucel (hydroxypropylcellulose) (HPC) 102 % of control and 107 % of control | [2] 96 % of control | dose: 50.0 mg/kg/injection, schedule: Q01DX009 (ip), vehicle: Klucel (hydroxypropylcellulose) (HPC) 107 % of control and 115 % of control and 116 % of control | [3] 91 % of control | dose: 50.0 mg/kg/injection, schedule: Q01DX009 (ip), vehicle: suspension in saline 93 % of control | dose: 100.0 mg/kg/injection, schedule: Q01DX009 (ip), vehicle: Klucel (hydroxypropylcellulose) (HPC) 107 % of control and 115 % of control and 118 % of control | [4] 100 % of control | dose: 100.0 mg/kg/injection, schedule: Q01DX009 (ip), vehicle: suspension in saline 104 % of control | dose: 200.0 mg/kg/injection, schedule: Q01DX009 (ip), vehicle: Klucel (hydroxypropylcellulose) (HPC) 107 % of control | [5] 100 % of control | dose: 200.0 mg/kg/injection, schedule: Q01DX009 (ip), vehicle: suspension in saline 93 % of control

CC(C)(C)c1ccc(OCC(COc2ccc(C(C)(C)C)cc2)(COc2ccc(C(C)(C)C)cc2)COc2ccc(C(C)(C)C)cc2)cc1
inactive: dose: 7.5 mg/kg/injection, schedule: Q01DX009 (ip), vehicle: saline with Tween-80 98 % of control | dose: 15.0 mg/kg/injection, schedule: Q01DX009 (ip), vehicle: saline with Tween-80 95 % of control | dose: 30.0 mg/kg/injection, schedule: Q01DX009 (ip), vehicle: saline with Tween-80 93 % of control

N#C/C(=C/c1cccs1)c1cccs1
inactive: [6] 100 % of control | [7] 106 % of control | [8] 109 % of control

CCOC(=O)C(Cc1ccc(N)cc1)N1C(=O)c2ccccc2C1=O (stereo not drawn)
inactive: dose: 50.0 mg/kg/injection, schedule: Q01DX009 (ip), vehicle: distilled water + Tween-80 + alcohol 100 % of control | dose: 100.0 mg/kg/injection, schedule: Q01DX009 (ip), vehicle: distilled water + Tween-80 + alcohol 95 % of control | dose: 200.0 mg/kg/injection, schedule: Q01DX009 (ip), vehicle: distilled water + Tween-80 + alcohol 91 % of control

O=C(NCCCCCCNC(=O)C1CCCN1C(=O)OCc1ccccc1)C1CCCN1C(=O)OCc1ccccc1 (stereo not drawn)
inactive: dose: 60.0 mg/kg/injection, schedule: Q01DX005 (ip), vehicle: Klucel (hydroxypropylcellulose) (HPC) 100 % of control | dose: 120.0 mg/kg/injection, schedule: Q01DX005 (ip), vehicle: Klucel (hydroxypropylcellulose) (HPC) 98 % of control | dose: 240.0 mg/kg/injection, schedule: Q01DX005 (ip), vehicle: Klucel (hydroxypropylcellulose) (HPC) 100 % of control

O=C(O)CSCC(=O)Nc1ccccc1Cl
inactive: [6] 95 % of control | [7] 91 % of control | [8] 100 % of control

Reference: PubChem BioAssay AID330 (DTP/NCI, 2004)
